Tests used:
M1 muscarinic receptor = target: T1, M1 muscarinic receptor (Homo sapiens, UniProt P11229); test: Functional mobilization of intracellular calcium (FLIPR) in CHO cells expressing M1; format: cell-based; settings: for EC50: CHO cells expressing M1, calcium mobilization; for Emax: CHO, 100% efficacy is the maximum response obtained with the Carbachol control
T1 construct: expressed in transfected cells; host or cells: CHO
T1 sequence (P11229 1-460): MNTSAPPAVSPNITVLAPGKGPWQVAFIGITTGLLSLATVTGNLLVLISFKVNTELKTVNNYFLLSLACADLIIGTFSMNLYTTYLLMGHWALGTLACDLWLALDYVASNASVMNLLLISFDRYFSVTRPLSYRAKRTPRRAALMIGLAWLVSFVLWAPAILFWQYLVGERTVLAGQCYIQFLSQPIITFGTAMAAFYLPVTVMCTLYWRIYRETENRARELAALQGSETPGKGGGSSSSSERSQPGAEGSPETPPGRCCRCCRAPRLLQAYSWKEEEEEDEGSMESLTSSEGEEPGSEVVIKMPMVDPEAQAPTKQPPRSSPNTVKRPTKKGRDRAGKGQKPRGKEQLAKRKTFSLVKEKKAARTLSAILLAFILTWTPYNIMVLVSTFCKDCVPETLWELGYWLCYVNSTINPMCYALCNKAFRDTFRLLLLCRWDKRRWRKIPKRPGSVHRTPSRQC
Description: (§1) Functional Mobilization of Intracellular Calcium to Determine Muscarinic Receptor Activity:
(§2) CHO cells expressing muscarinic receptors (M1 to M5) are grown as monolayers in tissue culture flasks at 37° C. in a humidified atmosphere containing 5% CO2 and passaged every 3-5 days. The growth media is Dulbecco's modified eagles medium (DMEM, Gibco Cat#12430-054), containing 25 mM Hepes and supplemented with Fetal Bovine Serum (Hyclone, Cat#SH30071.03), 0.1 mM of MEM non-essential amino acids (GIBCO, Cat#11140-050), 1 mM MEM Sodium Pyruvate (GIBCO Cat#11360-070) and 100 units/ml of Penicillin G and 100 μg/ml of Streptomycin (GIBCO Cat#15140-122). The recombinant muscarinic receptor cell lines are grown under antibiotic pressure with media containing 25 μg/ml zeocin and 500 μg/ml G418 (MI-CHO), 4 μg/ml puromycin, 50 μg/ml zeocin and 2.5 μg/ml blasticidin (M2 and M4-CHO) or 50 μg/ml zeocin and 4 μg/ml puromycin (M3 and M5-CHO).
(§3) Cells are harvested at 80-90% confluence using Versene (GIBCO Cat#15040-066), collected by centrifugation and seeded 18-24 hours prior to running the calcium assay at a density of 5,000-10,000 cells/well in […], clear-bottomed 384-well plates (BD Biocoat, poly-D-lysine, Cat#356663). The day of the experiment, the cells are washed with a plate washer (Bioteck Instruments, ELX 405) using bath 1 buffer (140-mM NaCl, 4.5-mM KCl, 2-mM CaCl2, 1-mM MgCl2, 10-mM Hepes-Na, 10-mM Glucose, pH 7.4, with NaOH) containing 1 mM Probenecid. Next, the calcium dye Fluo-3 (25 μl well of Fluo-3 AM at 4 μM, Molecular Probes F-1241, in Bath 1 buffer containing 1 mM Probenecid) is added to the 25 μl of Bath 1 remaining in each well after the plate wash and the dye is loaded at 37° C. in the tissue culture incubator for 60-90 min. The fluorescent dye is removed using the plate washer with Bath 1 containing 1 mM Probenecid, leaving 25 μl/well of this solution after the wash. Alternatively, cells can be loaded with the calcium indicator from Molecular Devices (Calcium 3 Assay Reagents, Cat #R7181) adding 5 μl of a 5× solution dye in Bath 1 containing 1 mM Probenecid (10 ml per dye flask cat#R7182 to generate a solution 20×) to 20 μl of the same buffer. After loading for 60 min, the experiment can be run without having to remove the dye.
(§4) Compounds are prepared at a 2× fold concentration in a 96-well plate (round bottom, Costar Corning cat#3656), by reconstituting the pre-spotted compounds in bath 1 containing 1 mM probenecid. The final concentration DMSO is 0.5%, and the amount of DMSO is normalized across the assay plate. To determine an agonist action of the compounds on muscarinic receptors, the reconstituted compounds are added (25 μl compound/well) to the cell assay plate (containing 25 μl/well) using the multi-channel robotic system of the FLIPR 3 Instrument (Molecular Devices, Sunnyvale, Calif.). To determine a functional inhibitory action of the compounds on muscarinic receptors, the reconstituted compounds are added (25 μl compound/well) to the assay plate and pre-incubated for 15 min prior to adding 25 μl of Carbachol at 3× the EC80 for each muscarinic subtype. Alternatively, the compounds can be co-applied simultaneously with the agonist. In both assay modes, the fluorescence is recorded for 60 sec (excitation wavelength is […] and emission wavelength 540 nm) using the FLIPR 3 instrument.
(§5) The potency, efficacy and selectivity of the muscarinic compounds were evaluated by screening the compound activity across the whole family (M1 to M5 cells). Compounds were also screened for activity on other proteins such as other GPCRs and ion channels to determine selectivity on M4 receptors.
(§6) Examples of activities and efficacies of the muscarinic compounds of formulae (I, I-A, and I-B) on modulating M1 and M4 receptors are shown below in Table 4. […]

M4 muscarinic receptor = target: T2, M4 muscarinic receptor (Homo sapiens, UniProt P08173); test: Functional mobilization of intracellular calcium (FLIPR) in CHO cells expressing M4; format: cell-based; settings: for EC50: CHO cells expressing M4, calcium mobilization; for Emax: CHO, 100% efficacy is the maximum response obtained with the Carbachol control
T2 construct: expressed in transfected cells; host or cells: CHO
T2 sequence (P08173 1-479): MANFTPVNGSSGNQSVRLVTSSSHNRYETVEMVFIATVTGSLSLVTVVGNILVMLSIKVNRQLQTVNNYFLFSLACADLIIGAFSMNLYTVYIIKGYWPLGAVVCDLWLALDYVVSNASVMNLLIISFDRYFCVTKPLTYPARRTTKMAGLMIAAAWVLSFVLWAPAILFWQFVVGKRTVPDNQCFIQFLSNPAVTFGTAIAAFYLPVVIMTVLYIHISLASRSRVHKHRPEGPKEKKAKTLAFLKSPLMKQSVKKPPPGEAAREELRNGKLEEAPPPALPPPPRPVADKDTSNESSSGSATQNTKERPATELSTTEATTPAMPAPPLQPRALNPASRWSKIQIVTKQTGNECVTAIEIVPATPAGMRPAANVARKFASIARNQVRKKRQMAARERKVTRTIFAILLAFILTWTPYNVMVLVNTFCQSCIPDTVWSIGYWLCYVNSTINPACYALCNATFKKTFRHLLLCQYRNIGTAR
Description: as §1, §2, §3, §4, §5, §6

Row | Compound | EC50 (M1 muscarinic receptor) [µM] | Emax (M1 muscarinic receptor) [%] | EC50 (M4 muscarinic receptor) [µM] | Emax (M4 muscarinic receptor) [%]
1 | CCOC(=O)N1C2CCC1CC(N1CCC3(CCC(=O)N(C)c4ccccc43)CC1)C2 (stereo not shown) [Compound 30] | < 2 | 25 to 100 | < 2 | 25 to 100
2 | CN(C)C(=O)N1CCCC2(CCN(CCC(C)(C)C)CC2)c2ccccc21 [Compound 31] | > 10 | < 25 | < 2 | 25 to 100
3 | CC(=O)N1CCCC2(CCN(CCC(C)(C)C)CC2)c2ccccc21 [Compound 32] | 2 to 10 | < 25 | < 2 | 25 to 100
4 | CN(C)C(=O)N1CCCC2(CCN(C3C[C@@H]4CC[C@@H]3C4)CC2)c2ccccc21 (stereo partly shown) [Compound 33] | > 10 | < 25 | > 10 | < 25
5 | CC(=O)N1CCCC2(CCN(CCC(C)C)CC2)c2ccccc21 [Compound 34] | > 10 | < 25 | > 10 | < 25
6 | CN1C(=O)CCC2(CCN(C3C[C@@H]4CC[C@@H]3C4)CC2)c2ccccc21 (stereo partly shown) [Compound 35] | > 10 | < 25 | < 2 | 25 to 100
7 | CC(C)(C)CCN1CCC2(CCC(=O)Nc3ccccc32)CC1 [Compound 36, 1′-(3,3-dimethylbutyl)-3,4-dihydrospiro[benzo[b]azepine-5,4′-piperidin]-2(1H)-one] | < 2 | 25 to 100 | < 2 | 25 to 100
